Assay results published in patent US11365196B2, “FGFR inhibitor and application thereof” (Betta Pharmaceuticals Co., Ltd., priority 2017, dated 2022).
Where two headings read alike, the source gives them in different places.

How the values were obtained:
NCI-H1581 cells = experiment: Cell proliferation assay on NCI-H1581 (Table 7); format: cell-based, human
Text: Test method: adding the appropriate volume of whole medium and the cells was suspended.

FGFR1 = FGFR1 (Homo sapiens (Human), UniProt P11362); experiment: Kinase assay Method 1, mobility shift assay
Sequence of FGFR1 (P11362 22-822): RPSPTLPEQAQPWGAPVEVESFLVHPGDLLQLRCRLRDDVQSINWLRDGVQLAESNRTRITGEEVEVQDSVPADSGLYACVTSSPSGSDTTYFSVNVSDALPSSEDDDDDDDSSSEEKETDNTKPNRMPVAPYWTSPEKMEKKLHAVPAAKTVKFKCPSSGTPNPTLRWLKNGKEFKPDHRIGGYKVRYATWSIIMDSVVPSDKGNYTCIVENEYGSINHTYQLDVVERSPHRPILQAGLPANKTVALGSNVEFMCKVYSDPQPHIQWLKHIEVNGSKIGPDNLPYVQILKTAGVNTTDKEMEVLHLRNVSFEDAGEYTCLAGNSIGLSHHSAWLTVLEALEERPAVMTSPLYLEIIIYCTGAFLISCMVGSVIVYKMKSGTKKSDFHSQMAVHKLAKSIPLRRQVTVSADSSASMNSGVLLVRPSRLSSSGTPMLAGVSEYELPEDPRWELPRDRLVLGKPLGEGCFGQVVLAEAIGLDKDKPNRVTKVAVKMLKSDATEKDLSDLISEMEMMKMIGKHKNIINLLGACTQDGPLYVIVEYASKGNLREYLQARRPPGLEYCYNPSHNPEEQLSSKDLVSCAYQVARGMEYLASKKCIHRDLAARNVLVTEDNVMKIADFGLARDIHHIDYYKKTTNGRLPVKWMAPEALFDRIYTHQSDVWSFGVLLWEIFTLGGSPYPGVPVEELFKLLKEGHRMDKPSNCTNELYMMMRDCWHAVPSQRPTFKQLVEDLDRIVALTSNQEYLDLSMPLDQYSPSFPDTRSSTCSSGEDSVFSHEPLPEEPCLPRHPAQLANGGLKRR
Description: Method 1: The inhibitory activity of some compounds of the present disclosure against FGFR1, FGFR2, FGFR3, FGFR4, KDR was tested by mobility shift assay (concentration of ATP is Km value).
Preparing of compounds: dilute test compounds to specific concentration using 100% DMSO

FGFR4 = FGFR4 (Homo sapiens (Human), UniProt P22455); experiment: Kinase assay Method 1, mobility shift assay; format: biochemical; conditions: ATP at Km, numeric values, read-out: IC50(nM) value of compounds FGFR4
Sequence of FGFR4 (P22455 22-802): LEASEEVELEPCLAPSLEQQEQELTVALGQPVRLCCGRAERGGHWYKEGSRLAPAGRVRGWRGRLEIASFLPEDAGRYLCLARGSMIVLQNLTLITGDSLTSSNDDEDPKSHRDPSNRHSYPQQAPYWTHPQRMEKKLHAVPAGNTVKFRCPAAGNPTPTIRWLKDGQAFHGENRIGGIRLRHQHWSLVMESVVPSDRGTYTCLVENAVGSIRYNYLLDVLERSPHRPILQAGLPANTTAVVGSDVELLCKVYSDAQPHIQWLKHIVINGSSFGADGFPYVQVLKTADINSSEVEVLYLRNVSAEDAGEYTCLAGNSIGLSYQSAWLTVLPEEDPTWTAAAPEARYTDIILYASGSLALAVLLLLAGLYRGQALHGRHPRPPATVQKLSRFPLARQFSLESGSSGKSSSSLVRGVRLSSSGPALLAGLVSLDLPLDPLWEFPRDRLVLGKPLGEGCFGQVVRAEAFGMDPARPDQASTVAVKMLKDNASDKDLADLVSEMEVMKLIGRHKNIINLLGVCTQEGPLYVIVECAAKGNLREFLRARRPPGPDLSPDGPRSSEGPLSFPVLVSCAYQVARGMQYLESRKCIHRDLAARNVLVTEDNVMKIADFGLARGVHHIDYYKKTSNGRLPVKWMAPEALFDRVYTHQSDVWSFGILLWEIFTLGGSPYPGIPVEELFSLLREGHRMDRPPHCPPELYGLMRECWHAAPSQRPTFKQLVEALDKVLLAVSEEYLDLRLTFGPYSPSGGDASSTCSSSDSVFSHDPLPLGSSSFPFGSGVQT

[1] = read-out: IC50(nM) value of compounds FGFR1, mobility shift assay, ATP at Km, class symbols
[2] = Homo sapiens, NCI-H1581, CellTiter 96 AQueous (144 hrs) or CellTiter Glo (96 hrs), class symbols, read-out: IC50(nM) value of compounds on NCI-H1581 cells
[3] = Homo sapiens, NCI-H1581, read-out: IC50(nM) value of compounds on NCI-H1581 cells

| Structure (SMILES) | IC50 (FGFR1; [1]) | IC50 (NCI-H1581 cells; [2]) | IC50 (FGFR4) | also measured |
| --- | --- | --- | --- | --- |
| COc1cc(OC)c(Cl)c(-c2cc3cnc(Nc4ccc(N(C)CCN(C)C)cc4)nc3n3cnnc23)c1 [Compound 21] | < 1 nM | – | – | IC50 (NCI-H1581 cells; CellTiter 96 AQueous (144 hrs) or CellTiter Glo (96 hrs), class symbols, read-out: IC50(nM) value of compounds on NCI-H1581 cells): 1 to 10 nM |
| COc1cc(OC)c(Cl)c(-c2cc3cnc(Nc4ccc(N5CC6CCC(C5)N6C)cc4)nc3n3cnnc23)c1 [Compound 23, 6-(2-chloro-3,5-dimethoxyphenyl)-N-(4-(8-methyl-3,8-diazabicyclo[3.2.1]octan-3-yl)phenyl)-[1,2,4]triazolo[4′,3′:1,6]pyrido[2,3-d]pyrimidin-2-amine] | – | < 1 nM | – | IC50 (FGFR1): < 1 nM |
| COc1cc(OC)c(Cl)c(-c2cc3cnc(Nc4ccc(N5CCN(C)C(C)(C)C5)cc4)nc3n3cnnc23)c1 [Compound 26, 6-(2-chloro-3,5-dimethoxyphenyl)-N-(4-(3,3,4-trimethylpiperazin-1-yl)phenyl)-[1,2,4]triazolo[4′,3′:1,6]pyrido[2,3-d]pyrimidin-2-amine] | < 1 nM | < 1 nM | – | – |
| COc1cc(OC)c(Cl)c(-c2cc3cnc(Nc4ccc(N5CCN(CCO)CC5)cc4)nc3n3cnnc23)c1 [Compound 32, 2-(4-(4-((6-(2-chloro-3,5-dimethoxyphenyl)-[1,2,4]triazolo[4′,3′:1,6]pyrido[2,3-d]pyrimidin-2-yl)amino)phenyl)piperazin-1-yl)ethan-1-ol] | < 1 nM | 1 to 10 nM | – | – |
| COc1cc(OC)c(Cl)c(-c2cc3cnc(Nc4ccc(CN5CCN(C)CC5)cc4)nc3n3cnnc23)c1 [Compound 46, 6-(2-chloro-3,5-dimethoxyphenyl)-N-(4-((4-methylpiperazin-1-yl)methyl)phenyl)-[1,2,4]triazolo[4′,3′:1,6]pyrido[2,3-d]pyrimidin-2-amine] | – | – | 56 nM | IC50 (NCI-H1581 cells; [3]): 2.4 nM |
| COc1cc(OC)c(Cl)c(-c2cc3cnc(Nc4ccc(N5CC6CCC(C5)N6)cc4)nc3n3cnnc23)c1 [Compound 51, N-(4-(3,8-diazabicyclo[3.2.1]octan-3-yl)phenyl)-6-(2-chloro-3,5-dimethoxyphenyl)[1,2,4]triazolo[4′,3′:1,6]pyrido[2,3-d]pyrimidin-2-amine] | – | – | 42 nM | IC50 (NCI-H1581 cells; [3]): 1.4 nM |
| COc1cc(OC)c(Cl)c(-c2cc3cnc(Nc4ccc(C5CCNCC5)c(C)c4)nc3n3cnnc23)c1 [Compound 52, 6-(2-chloro-3,5-dimethoxyphenyl)-N-(3-methyl-4-(piperidin-4-yl)phenyl)-[1,2,4]triazolo[4′,3′:1,6]pyrido[2,3-d]pyrimidin-2-amine] | < 1 nM | < 1 nM | – | – |
| COc1cc(OC)c(Cl)c(-c2cc3cnc(Nc4ccc5c(c4)CCNC5)nc3n3cnnc23)c1 [Compound 53, 6-(2-chloro-3,5-dimethoxyphenyl)-N-(1,2,3,4-tetrahydroisoquinolin-6-yl)-[1,2,4]triazolo[4′,3′:1,6]pyrido[2,3-d]pyrimidin-2-amine] | – | – | 14 nM | IC50 (NCI-H1581 cells; [3]): 0.7 nM |
| COc1cc(OC)c(Cl)c(-c2cc3cnc(Nc4ccc(N5C[C@@H](C)N[C@@H](C)C5)c(F)c4)nc3n3cnnc23)c1 [Compound 56, 6-(2-chloro-3,5-dimethoxyphenyl)-N-(4-((3S,5R)-3,5-dimethylpiperazin-1-yl)-3-fluorophenyl)-[1,2,4]triazolo[4′,3′:1,6]pyrido[2,3-d]pyrimidin-2-amine] | – | – | 51 nM | IC50 (NCI-H1581 cells; [3]): 1.2 nM |
| CCN1CCN(c2ccc(Nc3ncc4cc(-c5c(Cl)c(OC)cc(OC)c5Cl)c5nncn5c4n3)cc2)CC1 [Compound 61, 6-(2,6-dichloro-3,5-dimethoxyphenyl)-N-(4-(4-ethylpiperazin-1-yl)phenyl)-[1,2,4]triazolo[4′,3′:1,6]pyrido[2,3-d]pyrimidin-2-amine] | < 1 nM | < 1 nM | – | – |
| COc1cc(OC)c(Cl)c(-c2cc3cnc(Nc4ccc(N5CCC(N6CCOCC6)CC5)cc4)nc3n3cnnc23)c1Cl [Compound 65, 6-(2,6-dichloro-3,5-dimethoxyphenyl)-N-(4-(4-morpholinopiperidin-1-yl)phenyl)-[1,2,4]triazolo[4′,3′:1,6]pyrido[2,3-d]pyrimidin-2-amine] | – | – | 6.7 nM | IC50 (NCI-H1581 cells; [3]): 0.6 nM |
| CCN1CCN(c2ccc(Nc3ncc4cc(-c5cc6[nH]c(C)nc6cc5Cl)c5nncn5c4n3)cc2)CC1 [Compound 67, 6-(5-chloro-2-methyl-1H-benzo[d]imidazol-6-yl)-N-(4-(4-ethylpiperazin-1-yl)phenyl)-[1,2,4]triazolo[4′,3′:1,6]pyrido[2,3-d]pyrimidin-2-amine] | – | – | 90 nM | IC50 (NCI-H1581 cells; [3]): 1 to 10 nM |
| Cc1nc2cc(Cl)c(-c3cc4cnc(Nc5ccc(N6CCC(N(C)C)CC6)cc5)nc4n4cnnc34)cc2[nH]1 [Compound 78, 6-(5-chloro-2-methyl-1H-benzo[d]imidazol-6-yl)-N-(4-(4-(dimethylamino)piperidin-1-yl)phenyl)-[1,2,4]triazolo[4′,3′:1,6]pyrido[2,3-d]pyrimidin-2-amine] | – | – | 600 nM | IC50 (NCI-H1581 cells; [3]): 5.3 nM |
| C=CC(=O)Nc1ccc(Cc2nnc3c(-c4cc(OC)cc(OC)c4Cl)cc4cnc(NCCN5CCOCC5)nc4n23)cc1 [Compound 86, N-(4-((6-(2-chloro-3,5-dimethoxyphenyl)-2-((2-morpholinoethyl)amino)-[1,2,4]triazolo[4′,3′:1,6]pyrido[2,3-d]pyrimidin-9-yl)methyl)phenyl)acrylamide] | > 10 nM | 1 to 10 nM | – | – |
| CCC(=O)Nc1ccc(Cc2nnc3c(-c4cc(OC)cc(OC)c4Cl)cc4cnc(NCCN5CCOCC5)nc4n23)cc1 [Compound 96, N-(4-((6-(2-chloro-3,5-dimethoxyphenyl)-2-((2-morpholinoethyl)amino)-[1,2,4]triazolo[4′,3′:1,6]pyrido[2,3-d]pyrimidin-9-yl)methyl)phenyl)propionamide] | > 100 nM | > 100 nM | – | – |
| CC[N+]1([O-])CCN(c2ccc(Nc3ncc4cc(-c5cc(OC)cc(OC)c5Cl)c5nncn5c4n3)cc2)CC1 [Compound 99, 4-(4-((6-(2-chloro-3,5-dimethoxyphenyl)-[1,2,4]triazolo[4′,3′:1,6]pyrido[2,3-d]pyrimidin-2-yl)amino)phenyl)-1-ethylpiperazine 1-oxide] | > 10 nM | 1 to 10 nM | – | – |
| COc1cc(OC)c(Cl)c(-c2cc3cnc(Nc4ccc(N5CC[N+]6(O)CCC[C@@H]6C5)cc4)nc3n3cnnc23)c1 (stereo partly drawn) [Compound 100, (8aR)-2-(4-((6-(2-chloro-3,5-dimethoxyphenyl)-[1,2,4]triazolo[4′,3′:1,6]pyrido[2,3-d]pyrimidin-2-yl)amino)phenyl)octahydro-5H-pyrrolo[1,2-a]pyrazine 5-oxide] | < 1 nM | 10 to 100 nM | – | – |
| C=CC(=O)N1CCN(CCCc2nc3c(-c4cc(OC)cc(OC)c4Cl)cc4cnc(NC)nc4n3n2)CC1 [Compound 115, 1-(4-(3-(4-(2-chloro-3,5-dimethoxyphenyl)-8-(methylamino)-[1,2,4]triazolo[1′,5′:1,6]pyrido[2,3-d]pyrimidin-2-yl)propyl)piperazin-1-yl)prop-2-en-1-one] | – | – | 6.8 nM | – |

Continued, in another order:

| IC50 (FGFR1; [1]) | IC50 (NCI-H1581 cells; [2]) | Structure (SMILES) | IC50 (FGFR4) | also measured |
| --- | --- | --- | --- | --- |
| < 1 nM | 1 to 10 nM | COc1cc(OC)c(Cl)c(-c2cc3cnc(Nc4ccc(N5CCN(C6CCCC6)CC5)cc4)nc3n3cnnc23)c1 [Compound 104, 6-(2-chloro-3,5-dimethoxyphenyl)-N-(4-(4-cyclopentylpiperazin-1-yl)phenyl)-[1,2,4]triazolo[4′,3′:1,6]pyrido[2,3-d]pyrimidin-2-amine] | – | – |
| < 1 nM | 1 to 10 nM | COc1cc(OC)c(Cl)c(-c2cc3cnc(Nc4ccc(N5CCN(C(C)=O)CC5)cc4)nc3n3cnnc23)c1 [Compound 106, 6-(2-chloro-3,5-dimethoxyphenyl)-N-(4-(4-acetylpiperazine-1-yl)phenyl)-[1,2,4]triazolo[4′,3′:1,6]pyrido[2,3-d]pyrimidin-2-amine] | – | – |
| < 1 nM | 1 to 10 nM | COc1cc(OC)c(Cl)c(-c2cc3cnc(Nc4ccc(N5CCN(C(=O)N(C)C)CC5)cc4)nc3n3cnnc23)c1 [Compound 107, 4-(4-((6-(2-chloro-3,5-dimethoxyphenyl)-[1,2,4]triazolo[4′,3′:1,6]pyrido[2,3-d]pyrimidin-2-yl)amino)phenyl)-N,N-dimethylpiperazine-1-carboxamide] | – | – |
| > 10 nM | 10 to 100 nM | COc1cc(OC)c(Cl)c(-c2cc3cnc(Nc4ccc(N5CC6(CN(C(=O)N(C)C)C6)C5)cc4)nc3n3cnnc23)c1 [Compound 108, 6-(4-((6-(2-chloro-3,5-dimethoxyphenyl)-[1,2,4]triazolo[4′,3′:1,6]pyrido[2,3-d]pyrimidin-2-yl)amino)phenyl)-N,N-dimethyl-2,6-diazaspiro[3.3]heptane-2-carboxamide] | – | – |
| > 100 nM | 10 to 100 nM | C=CC(=O)Nc1ccc(Cc2nc3c(-c4cc(OC)cc(OC)c4Cl)cc4cnc(NCCN5CCOCC5)nc4n3n2)cc1 [Compound 112, N-(4-((4-(2-chloro-3,5-dimethoxyphenyl)-8-((2-morpholinoethyl)amino)-[1,2,4]triazolo[1′,5′:1,6]pyrido[2,3-d]pyrimidin-2-yl)methyl)phenyl)acrylamide] | – | – |
| > 10 nM | 10 to 100 nM | C=CC(=O)N1CCN(CCCc2nnc3c(-c4cc(OC)cc(OC)c4Cl)cc4cnc(NC)nc4n23)CC1 [Compound 113, 1-(4-((6-(2-chloro-3,5-dimethoxyphenyl)-2-(methylamino)-[1,2,4]triazolo[4′,3′:1,6]pyrido[2,3-d]pyrimidin-9-yl)propyl)piperazin-1-yl)prop-2-en-1-one] | – | – |
| > 100 nM | > 100 nM | C=CC(=O)N1CCN(CCc2nnc3c(-c4cc(OC)cc(OC)c4Cl)cc4cnc(NC)nc4n23)CC1 [Compound 114, 1-(4-(2-(6-(2-chloro-3,5-dimethoxyphenyl)-2-(methylamino)-[1,2,4]triazolo[4′,3′:1,6]pyrido[2,3-d]pyrimidin-9-yl)ethyl)piperazin-1-yl)prop-2-en-1-one] | – | – |
